For orientation: EC50 means the midpoint of the concentration-response curve.

Counter-ions that a name gives are not always drawn. Like-named read-outs stand apart in the source and are kept apart here.

The values below come from patent US8394969B2, “Cyclic benzimidazole derivatives useful as anti-diabetic agents” (Merck Sharp & Dohme Corp., priority 2008, dated 2013).

One test concerns ob/ob and db/db mice. The note with it: following 8 weeks of administration; cited from earlier work.
The target of test [1] is recombinant human AMPK complex 1 (containing α1β1γ1) (Homo sapiens, UniProt Q13131+Q9Y478). Put plainly: […] (in vitro AMPK activation assay). In kind it is biochemical. Particulars: for Emax: basal activity subtracted.
Setting [2] is: read-out: % Maximum AMP Activation of human AMPK Complex 1, recombinant human AMPK complex 1 (α1β1γ1).
Where [3] appears, read: recombinant human AMPK complex 1 (α1β1γ1), read-out: % Maximum AMP Activation of human AMPK Complex 1.

recombinant human AMPK complex 1 (containing α1β1γ1), sequence (Q13131 whole entry): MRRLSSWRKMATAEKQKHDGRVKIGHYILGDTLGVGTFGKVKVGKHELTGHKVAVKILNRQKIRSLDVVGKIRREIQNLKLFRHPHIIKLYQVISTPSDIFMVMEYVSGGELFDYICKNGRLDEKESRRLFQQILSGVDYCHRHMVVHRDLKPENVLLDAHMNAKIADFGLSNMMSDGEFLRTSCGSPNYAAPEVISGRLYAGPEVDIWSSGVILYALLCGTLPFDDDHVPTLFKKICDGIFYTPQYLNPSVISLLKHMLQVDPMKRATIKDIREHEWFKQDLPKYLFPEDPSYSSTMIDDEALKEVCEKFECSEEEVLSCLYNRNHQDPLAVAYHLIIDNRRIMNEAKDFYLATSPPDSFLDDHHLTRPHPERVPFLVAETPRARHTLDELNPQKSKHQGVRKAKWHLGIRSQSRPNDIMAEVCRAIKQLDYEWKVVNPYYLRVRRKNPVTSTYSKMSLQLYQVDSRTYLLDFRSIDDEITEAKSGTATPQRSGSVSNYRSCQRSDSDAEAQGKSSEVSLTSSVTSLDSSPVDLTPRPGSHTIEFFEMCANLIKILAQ
recombinant human AMPK complex 1 (containing α1β1γ1), sequence (Q9Y478 whole entry): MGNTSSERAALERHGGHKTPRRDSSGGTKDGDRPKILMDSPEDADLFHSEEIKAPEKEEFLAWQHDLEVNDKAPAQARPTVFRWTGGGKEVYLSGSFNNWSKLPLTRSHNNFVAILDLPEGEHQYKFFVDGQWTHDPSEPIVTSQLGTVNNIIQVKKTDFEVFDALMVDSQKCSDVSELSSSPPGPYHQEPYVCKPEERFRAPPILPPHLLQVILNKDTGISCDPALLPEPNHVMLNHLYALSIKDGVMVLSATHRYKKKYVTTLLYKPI
recombinant human AMPK complex 1 (containing α1β1γ1), sequence (P54619 whole entry partner): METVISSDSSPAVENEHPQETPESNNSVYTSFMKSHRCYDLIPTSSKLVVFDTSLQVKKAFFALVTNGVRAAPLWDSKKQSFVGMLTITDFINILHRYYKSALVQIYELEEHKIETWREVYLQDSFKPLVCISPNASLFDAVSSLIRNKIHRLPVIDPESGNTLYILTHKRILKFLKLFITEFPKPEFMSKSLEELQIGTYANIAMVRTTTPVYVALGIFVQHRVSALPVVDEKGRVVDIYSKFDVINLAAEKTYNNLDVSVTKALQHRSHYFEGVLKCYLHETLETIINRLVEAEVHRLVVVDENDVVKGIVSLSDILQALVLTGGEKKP

As to `NC(=O)c1ncn([C@@H]2O[C@H](CO)[C@@H](O)[C@H]2O)c1N` [AICAR], the blood glucose reduction in the test on ob/ob and db/db mice was 35%. Turning to `Cc1ccc(-c2cc3nc(Oc4ccc(C)c(C(=O)O)c4)[nH]c3cc2Cl)cc1C` [Example 340, Ammonium 5-{[6-chloro-5-(3,4-dimethylphenyl)-1H-benzimidazol-2-yl]oxy}-2-methylbenzoate], in test [1] (setting [2]), the Emax is more than 80%. In the case of `COc1ccc(-c2cc3nc(Oc4ccc(C)c(C(=O)O)c4)[nH]c3cc2Cl)c(F)c1.N` [Example 342, Ammonium 5-{[6-chloro-5-(2-fluoro-4-methoxyphenyl)-1H-benzimidazol-2-yl]oxy}-2-methylbenzoate], the “% Maximum AMP Activation of human AMPK Complex 1” value in test [1] is on record as “greater than 80%”. Turning to `CSc1ccc(-c2cc3nc(Oc4ccc(C)c(C(=O)O)c4)[nH]c3cc2Cl)cc1` [Example 343, Ammonium 5-({6-chloro-5-[4-(methylthio)phenyl]-1H-benzimidazol-2-yl}oxy)-2-methylbenzoate], in test [1] (setting [2]), the Emax is more than 80%. With `CCCCc1ccc(-c2cc3nc(Oc4ccc(C)c(C(=O)O)c4)[nH]c3cc2Cl)cc1` [Example 344, Ammonium 5-{[5-(4-butylphenyl)-6-chloro-1H-benzimidazol-2-yl]oxy}-2-methylbenzoate], the Emax in test [1] (setting [2]) is more than 80%. Consider `COc1ccc(-c2cc3nc(Oc4ccc(C)c(C(=O)O)c4)[nH]c3cc2Cl)cc1` [Example 345, Ammonium 5-{[6-chloro-5-(4-methoxyphenyl)-1H-benzimidazol-2-yl]oxy}-2-methylbenzoate], for which the Emax in test [1] (setting [2]) is more than 80%. Regarding `Cc1ccc(Oc2nc3cc(-c4cccc(N(C)C)c4)c(Cl)cc3[nH]2)cc1C(=O)O` [Example 346, Ammonium 5-({6-chloro-5-[3-(dimethylamino)phen-yl]-1H-benzimidazol-2-yl}oxy)-2-methylbenzoate], in test [1] (setting [2]), the Emax was more than 80%.

On to `CCCc1ccc(-c2cc3nc(Oc4ccc(C)c(C(=O)O)c4)[nH]c3cc2Cl)cc1` [Example 347, 2-(3-carboxy-4-methylphenoxy)-6-chloro-5-(4-propylphenyl)-1H-3,1-benzimidazol-3-ium trifluoroacetate], for which the Emax in test [1] (setting [3]) is more than 80%.

As to `CCCc1ccc(-c2cc3nc(Oc4ccc(C)c(C(=O)O)c4)[nH]c3cc2Cl)cc1.N` [Example 348, Ammonium 5-{[6-chloro-5-(4-propylphenyl)-1H-benzimidazol-2-yl]oxy}-2-methylbenzoate], the “% Maximum AMP Activation of human AMPK Complex 1” value in test [1] is “greater than 80%”. As for `Cc1ccc(Oc2nc3cc(-c4ccc5c(c4)c(C#N)cn5C)c(Cl)cc3[nH]2)cc1C(=O)O` [Example 349, 2-(3-carboxy-4-methylphenoxy)-6-chloro-5-(3-cyano-1-methyl-1H-indol-5-yl)-1H-3,1-benzimidazol-3-ium trifluoroacetate], the Emax in test [1] (setting [3]) is more than 80%.

On to `Cc1ccc(Oc2nc3cc(-c4ccc(N5CCCC5=O)cc4)c(Cl)cc3[nH]2)cc1C(=O)O` [Example 350, 2-(3-carboxy-4-methylphenoxy)-6-chloro-5-[4-(2-oxopyrrolidin-1-yl)phenyl]-1H-3,1-benzimidazol-3-ium trifluoroacetate], for which, in test [1] (setting [3]), the Emax is more than 80%. The same measure, in the same setting: in the case of `Cc1ccc(Oc2nc3cc(-c4ccc5c(ccn5CC(F)(F)F)c4)c(Cl)cc3[nH]2)cc1C(=O)O` [Example 351, 5-{6-Chloro-5-[1-(2,2,2-trifluoro-ethyl)-1H-indol-5-yl]-1H-benzoimidazol-2-yloxy}-2-methyl-benzoic acid] it was more than 80%; in that of `Cc1ccc(Oc2nc3cc(-c4ccc(C(C)C)cc4)c(Cl)cc3[nH]2)cc1C(=O)O` [Example 352, 5-[6-Chloro-5-(4-isopropyl-phenyl)-1H-benzoimidazol-2-yloxy]-2-methyl-benzoic acid], more than 80%; in that of `Cc1ccc(Oc2nc3cc(-c4ccc5c(c4)c(CN(C)C)cn5C)c(Cl)cc3[nH]2)cc1C(=O)O` [Example 353, 5-[6-Chloro-5-(3-dimethylaminomethyl-1-methyl-1H-indol-5-yl)-1H-benzoimidazol-2-yloxy]-2-methyl-benzoic acid], more than 80%.

As to `Cc1ccc(Oc2nc3cc(-c4nc5ccccc5s4)c(Cl)cc3[nH]2)cc1C(=O)O` [Example 354, 5-(5-Benzothiazol-2-yl-6-chloro-1H-benzoimidazol-2-yloxy)-2-methyl-benzoic acid], in test [1] (setting [3]), the Emax was more than 80%. Still for that read-out and setting: under `Cc1ccc(Oc2nc3cc(-c4cc5ccccc5s4)c(Cl)cc3[nH]2)cc1C(=O)O` [Example 355, 5-(5-Benzo[b]thiophen-2-yl-6-chloro-1H-benzoimidazol-2-yloxy)-2-methyl-benzoic acid] stands more than 80%. Take `Cc1ccc(Oc2nc3cc(-c4cc5ccccc5o4)c(Cl)cc3[nH]2)cc1C(=O)O` [Example 356, 5-(5-Benzofuran-2-yl-6-chloro-1H-benzoimidazol-2-yloxy)-2-methyl-benzoic acid]: in test [1] (setting [3]), the Emax is more than 80%. As for `Cc1ccc(Oc2nc3cc(-c4ccc(C5CCCCC5)cc4)c(Cl)cc3[nH]2)cc1C(=O)O` [Example 357, 5-[6-Chloro-5-(4-cyclohexyl-phenyl)-1H-benzoimidazol-2-yloxy]-2-methyl-benzoic acid], the Emax in test [1] (setting [3]) was more than 80%. For `Cc1ccc(Oc2nc3cc(-c4ccc5c(c4)C(C)(C)CCC5(C)C)c(Cl)cc3[nH]2)cc1C(=O)O` [Example 358, 5-[6-Chloro-5-(5,5,8,8-tetramethyl-5,6,7,8-tetrahydro-naphthalen-2-yl)-1H-benzoimidazol-2-yloxy]-2-methyl-benzoic acid], the Emax in test [1] (setting [3]) was more than 80%.

For the molecule `Cc1ccc(Oc2nc3cc(-c4ccc(-c5ccccc5)s4)c(Cl)cc3[nH]2)cc1C(=O)O` [Example 359, 5-{6-Chloro-5-(5-phenyl-thiophen-2-yl)-1H-benzoimidazol-2-yloxy}-2-methyl-benzoic acid], in test [1] (setting [3]), the Emax was more than 80%.

For the molecule `Cc1ccc(Oc2nc3cc(-c4ccc5c(c4)OCCO5)c(Cl)cc3[nH]2)cc1C(=O)O` [Example 360, 5-[6-Chloro-5-(2,3-dihydro-benzo[1,4]dioxin-6-yl)-1H-benzoimidazol-2-yloxy]-2-methyl-benzoic acid], in test [1] (setting [3]), the Emax was more than 80%. Turning to `Cc1ccc(Oc2nc3cc(-c4sc(-c5ccccc5)nc4C)c(Cl)cc3[nH]2)cc1C(=O)O` [Example 361, 5-[6-chloro-5-(4-methyl-2-phenyl-thiazol-5-yl)-1H-benzoimidazol-2-yloxy]-2-methyl-benzoic acid], the Emax in test [1] (setting [3]) is more than 80%. Turning to `Cc1ccc(Oc2nc3cc(-c4ccc5c(c4)N(C)CCN5C)c(Cl)cc3[nH]2)cc1C(=O)O` [Example 362, 5-[6-chloro-5-(1,4-dimethyl-1,2,3,4-tetrahydro-quinoxalin-6-yl)-1H-benzoimidazol-2-yloxy]-2-methyl-benzoic acid], the Emax in test [1] (setting [3]) was more than 80%.

Consider `Cc1ccc(Oc2nc3cc(-c4ccc(OC(F)(F)F)cc4)c(Cl)cc3[nH]2)cc1C(=O)O` [Example 363, Ammonium 5-({6-chloro-5-[4-(trifluoromethoxy)phenyl]-1H-benzimidazol-2-yl}oxy)-2-methylbenzoate], for which the Emax in test [1] (setting [2]) is more than 80%.

On to `Cc1ccc(Oc2nc3cc(-c4ccc(-c5ccccc5)cc4)c(F)cc3[nH]2)cc1C(=O)O` [Example 365, 5-[(5-biphenyl-4-yl-6-fluoro-1H-benzimidazol-2-yl)oxy]-2-methylbenzoic acid], for which the EC50 in test [1] (recombinant human AMPK complex 1 (α1β1γ1), read-out: EC50) stood at 9 nM.
